The values that follow come from patent US8722578B2, “Spiroheterocyclic pyrrolidinedione herbicidal compositions” (Syngenta Participations AG, priority 2008, dated 2014).

Each structure is given as a SMILES string.

Series [1] concerns Alopecurus myosuroides (ALOMY). The series can be described thus: Example B post-emergence herbicidal activity, glasshouse pot test. It counts as in vivo. Conditions: 312 h, rate 1000 g/ha, evaluated after 13 days, read-out: ALOMY post-emergence activity (100=total damage to plant; 0=no damage to plant). Put shortly:
(§1)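 Sow seeds in pots of standard soil and grow at 24/16° C day/night, 14 h light, 65% humidity. Spray at 1 day (pre-emergence) or 8 days (post-emergence) with compound in acetone/water (50:50), 0.5% Tween 20. Water twice daily, then score plant damage 0–100 after 13 days.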

The test system of series [2] is Setaria faberi (SETFA). Described as above. It counts as in vivo. Conditions: 312 h, rate 1000 g/ha, evaluated after 13 days, read-out: SETFA post-emergence activity (100=total damage to plant; 0=no damage to plant). Summed up:
as §1

The test system of series [3] is Avena fatua (AVEFA). Described as above. Format: in vivo. Particulars: 312 h, rate 1000 g/ha, evaluated after 13 days, read-out: AVEFA post-emergence activity (100=total damage to plant; 0=no damage to plant). Put shortly: as §1
The test system of series [4] is Echinochloa crus-galli (ECHCG). The series is described as above. Format: in vivo. Particulars: 312 h, rate 1000 g/ha, evaluated after 13 days, read-out: ECHCG post-emergence activity (100=total damage to plant; 0=no damage to plant). Summed up: as §1
Series [5] deals with Alopecurus myosuroides (ALOMY). The series can be described thus: Example B pre-emergence herbicidal activity, glasshouse pot test. Format: in vivo. Particulars: 312 h, first table (headed Post-Emergence, taken as pre-emergence), rate 1000 g/ha, evaluated after 13 days, read-out: ALOMY activity (100=total damage to plant; 0=no damage to plant). Summed up: as §1
Series [6] relates to Setaria faberi (SETFA). Described as above. Conditions: 312 h, first table (headed Post-Emergence, taken as pre-emergence), rate 1000 g/ha, evaluated after 13 days, read-out: SETFA activity (100=total damage to plant; 0=no damage to plant). It counts as in vivo. Put shortly:
as §1

The test system of series [7] is Avena fatua (AVEFA). The description is as above. Format: in vivo. Conditions: 312 h, first table (headed Post-Emergence, taken as pre-emergence), rate 1000 g/ha, evaluated after 13 days, read-out: AVEFA activity (100=total damage to plant; 0=no damage to plant). Put shortly:
as §1

The test system of series [8] is Echinochloa crus-galli (ECHCG). The description is as above. It counts as in vivo. Particulars: 312 h, first table (headed Post-Emergence, taken as pre-emergence), rate 1000 g/ha, evaluated after 13 days, read-out: ECHCG activity (100=total damage to plant; 0=no damage to plant). Summed up:
as §1

In series [9] the test system is Digitaria sanguinalis (DIGSA). Description: Example A post-emergence herbicidal activity, glasshouse pot test. Particulars: 360 h, rate 125 g/ha, evaluated 15 days after spraying, read-out: DIGSA post-emergence activity (100=total damage to plant; 0=no damage to plant). It counts as in vivo. On the procedure: (§2) Monocotyledonous and dicotyledonous test plants are sown in standard soil in pots. After cultivation for one day (pre-emergence) or after 10 days cultivation (post-emergence) under controlled conditions in a glasshouse, the plants are sprayed with an aqueous spray solution derived from the formulation of the technical active ingredient in 0.6 ml acetone and 45 ml formulation solution containing 10.6% Emulsogen EL (Registry number 61791-12-6), 42.2% N-methylpyrrolidone, 42.2% dipropylene glycol monomethyl ether (Registry number 34590-94-8) and 0.2% X-77 (Registry number 11097-66-8). The test plants are then grown in a greenhouse under optimum conditions until, 15 days later for post-emergence and 20 days for pre-emergence, the test is evaluated (100=total damage to plant; 0=no damage to plant). Test Plants: Alopecurus myosuroides (ALOMY), Avena fatua (AVEFA), Lolium perenne (LOLPE), Setaria faberi (SETFA), Digitaria sanguinalis (DIGSA), Echinochloa crus-galli (ECHCG) Post-Emergence Activity

Series [10] concerns Lolium perenne (LOLPE). The description is as above. It counts as in vivo. Conditions: 360 h, rate 125 g/ha, evaluated 15 days after spraying, read-out: LOLPE post-emergence activity (100=total damage to plant; 0=no damage to plant). The protocol:
as §2

The test system of series [11] is Alopecurus myosuroides (ALOMY). The series is described as above. It counts as in vivo. Conditions: 360 h, rate 125 g/ha, evaluated 15 days after spraying, read-out: ALOMY post-emergence activity (100=total damage to plant; 0=no damage to plant). The protocol:
as §2

Series [12] relates to Setaria faberi (SETFA). The series is described as above. It counts as in vivo. Particulars: 360 h, rate 125 g/ha, evaluated 15 days after spraying, read-out: SETFA post-emergence activity (100=total damage to plant; 0=no damage to plant). The protocol: as §2
In series [13] the test system is Avena fatua (AVEFA). Described as above. It counts as in vivo. Particulars: 360 h, rate 125 g/ha, evaluated 15 days after spraying, read-out: AVEFA post-emergence activity (100=total damage to plant; 0=no damage to plant). The protocol: as §2
In series [14] the test system is Echinochloa crus-galli (ECHCG). The series is described as above. It counts as in vivo. Particulars: 360 h, rate 125 g/ha, evaluated 15 days after spraying, read-out: ECHOG post-emergence activity (100=total damage to plant; 0=no damage to plant). The protocol:
as §2

Series [15] has as its system Digitaria sanguinalis (DIGSA). The series can be described thus: Example A pre-emergence herbicidal activity, glasshouse pot test. Format: in vivo. Conditions: 480 h, rate 250 g/ha, evaluated 20 days after spraying, read-out: DIGSA pre-emergence activity (100=total damage to plant; 0=no damage to plant). On the procedure:
as §2, with “Pre-Emergence” for “Post-Emergence”

The subject of series [16] is Lolium perenne (LOLPE). The series is described as above. Format: in vivo. Particulars: 480 h, rate 250 g/ha, evaluated 20 days after spraying, read-out: LOLPE pre-emergence activity (100=total damage to plant; 0=no damage to plant). The protocol: as §2, with “Pre-Emergence” for “Post-Emergence”
The subject of series [17] is Alopecurus myosuroides (ALOMY). The description is as above. It counts as in vivo. Particulars: 480 h, rate 250 g/ha, evaluated 20 days after spraying, read-out: ALOMY pre-emergence activity (100=total damage to plant; 0=no damage to plant). The protocol:
as §2, with “Pre-Emergence” for “Post-Emergence”

Series [18] deals with Setaria faberi (SETFA). The description is as above. It counts as in vivo. Particulars: 480 h, rate 250 g/ha, evaluated 20 days after spraying, read-out: SETFA pre-emergence activity (100=total damage to plant; 0=no damage to plant). The protocol:
as §2, with “Pre-Emergence” for “Post-Emergence”

The subject of series [19] is Avena fatua (AVEFA). Described as above. Format: in vivo. Conditions: 480 h, rate 250 g/ha, evaluated 20 days after spraying, read-out: AVEFA pre-emergence activity (100=total damage to plant; 0=no damage to plant). The protocol:
as §2, with “Pre-Emergence” for “Post-Emergence”

Series [20] concerns Echinochloa crus-galli (ECHCG). The series is described as above. It counts as in vivo. Particulars: 480 h, rate 250 g/ha, evaluated 20 days after spraying, read-out: ECHOG pre-emergence activity (100=total damage to plant; 0=no damage to plant). On the procedure:
as §2, with “Pre-Emergence” for “Post-Emergence”

For `CCOC(=O)OC1=C(c2cc(-c3ccc(Cl)cc3)ccc2C)C(=O)NC12CCN(OC)CC2` [Compound P29], the melting point (in general, the temperature, or range, at which the solid turns liquid) was in the range of 209 to 211 °C. The pest or weed control at 1000 g/ha in [1] was determined as 100%. For the same molecule, the pest or weed control at 1000 g/ha in series [2] stood at 100%. Also, the pest or weed control at 1000 g/ha in [3] was determined as 100%. Further, the pest or weed control at 1000 g/ha in series [4] amounted to 100%. In addition, the pest or weed control at 1000 g/ha in series [5] was determined as 70%. For the same molecule, the pest or weed control at 1000 g/ha in [6] was found to be 100%. The pest or weed control at 1000 g/ha in series [7] stood at 90%. The pest or weed control at 1000 g/ha in series [8] was determined as 100%. For the same molecule, in series [9], the pest or weed control at 125 g/ha came to 100%. For the same molecule, the pest or weed control at 125 g/ha in series [10] was 80%. Besides, in series [11], the pest or weed control at 125 g/ha was found to be 90%. In addition, the pest or weed control at 125 g/ha in series [12] is 90%. For the same molecule, in [13], the pest or weed control at 125 g/ha was 90%. The pest or weed control at 125 g/ha in [14] worked out at 100%. Further, the pest or weed control at 250 g/ha in series [15] was determined as 20%. The pest or weed control at 250 g/ha in series [16] was 10%. The pest or weed control at 250 g/ha in series [17] was determined as 20%. Besides, in series [18], the pest or weed control at 250 g/ha was determined as 0%. Also, the pest or weed control at 250 g/ha in series [19] is 50%. Moreover, the pest or weed control at 250 g/ha in series [20] came out at 60%.
